Paper PMC8317065, “UPLC-MS/MS Method for Analysis of Endocannabinoid and Related Lipid Metabolism in Mouse Mucosal Tissue” (Frontiers in Physiology, 2021)
pIC50: −log10 of the molar value.

Experiments:
MGL and ABHD6 = assay: MAG degradative enzyme activity assay with JZL 184 and WWL 70 together, lung protein isolates; format: biochemical; conditions: mouse lung
Description: (§1) Homogenized samples were centrifuged at 800 × g for 15 m at 4°C. The supernatant was collected in a 2.0 mL centrifuge tube and sonicated twice for 10 s. Samples underwent two sequential freeze thaw cycles using liquid N2. Samples were again centrifuged at 800 × g, 15 min, 4°C and the supernatant was collected. Total protein was then quantified via BCA assay and normalized between all samples. Protein isolations for each assay and each tissue were performed separately.
Substrate solutions were prepared by drying stock 19:2 MAG (50 nmol/reaction) under N2 steam and adding fatty acid free BSA (0.25%) and stock 50 mM Tris–HCl (pH = 8.0). The MGL substrate solution was then sonicated for 60 min while protein samples were prepared. […] MGL substrate solution was added to normalized protein (400 μL; 500 μL final volume) samples and incubated in a water bath at 37°C for 10 min (jejunum protein) or 30 min (lung protein). […] The products of the reaction were extracted via lipid extraction methods (see section “Lipid Extraction for Enzyme Assays”) and quantified via UPLC-MS/MS (see section “Quantitation of MAG Degradative Enzyme Activity Assay Products”).
Lipids were extracted using liquid-liquid extraction with chloroform (2.0 mL) followed by 0.8 mL 0.2-micron ultra-purified water. […] Products were detected and quantified via UPLC-MS/MS techniques (see section “UPLC-MS/MS Detection of Analytes”). […]

ABHD6 [1] = molecular target: T1, ABHD6 (Mus musculus, UniProt Q8R2Y0); assay: MAG degradative enzyme activity assay with WWL 70, lung protein isolates; format: biochemical; conditions: for MAG metabolism, product recovery (normalized response): lung protein 25 μg, WWL 70 alone
T1 construct: from tissue; host or cells: mouse (C57BL/6J) lung, 800 x g supernatant
T1 sequence (Q8R2Y0 1-336): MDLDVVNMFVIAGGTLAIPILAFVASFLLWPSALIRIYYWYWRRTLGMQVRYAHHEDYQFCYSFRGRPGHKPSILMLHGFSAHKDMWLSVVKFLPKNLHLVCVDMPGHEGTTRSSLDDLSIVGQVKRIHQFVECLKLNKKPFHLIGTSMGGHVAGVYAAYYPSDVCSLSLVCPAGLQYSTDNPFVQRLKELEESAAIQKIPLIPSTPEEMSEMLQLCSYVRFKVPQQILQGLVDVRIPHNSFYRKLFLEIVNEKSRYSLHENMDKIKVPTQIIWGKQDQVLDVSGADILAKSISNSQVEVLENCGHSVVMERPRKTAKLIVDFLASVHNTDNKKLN
Description: as §1
Substrate solutions were prepared by drying stock 19:2 MAG (50 nmol/reaction) under N2 steam and adding fatty acid free BSA (0.25%) and stock 50 mM Tris–HCl (pH = 8.0). The MGL substrate solution was then sonicated for 60 min while protein samples were prepared. […] MGL substrate solution was added to normalized protein (400 μL; 500 μL final volume) samples and incubated in a water bath at 37°C for 10 min (jejunum protein) or 30 min (lung protein). The reaction was stopped using 1.0 mL of chilled methanol containing the internal standard 17:1 FFA (5 nmol/reaction) and placed on ice. The products of the reaction were extracted via lipid extraction methods (see section “Lipid Extraction for Enzyme Assays”) and quantified via UPLC-MS/MS (see section “Quantitation of MAG Degradative Enzyme Activity Assay Products”).
Lipids were extracted using liquid-liquid extraction with chloroform (2.0 mL) followed by 0.8 mL 0.2-micron ultra-purified water. Samples were centrifuged (1500 × g, 5 min, 4°C) and the lower organic phase was collected. The samples were further purified, as previously described ([Batugedara et al., 2018]), via open-bed silica gel column chromatography which was washed with a 9:1 chloroform:methanol mixture to elute MAGs, FAEs, and FFAs for collection. Eluates were dried under N2 steam (99.998% pure) and resuspended in 0.2 mL of methanol:chloroform (1:1). Products were detected and quantified via UPLC-MS/MS techniques (see section “UPLC-MS/MS Detection of Analytes”).
Data was acquired using equipment described above (see section “UPLC-MS/MS Detection of Analytes”) and eluted by a gradient of water and methanol (containing 0.25% acetic acid, 5 mM ammonium acetate) at a flow rate of 0.4 mL/min and gradient: 90% methanol 0.0–0.1 min, 90–100% methanol 0.1–2.0 min, 100% methanol 2.0–2.1 min, 100–90% methanol 2.1–2.2 min, and 90% methanol 2.2–2.5 min. […] Lipids were quantified using a dilution series detecting deprotonated molecular ions in selected ion reading (SIR) mode (variable amounts of product 19:2 FFA versus fixed amount of internal standard 17:1 FFA). Extracted ion chromatograms for SIR masses were used to quantify analytes: 19:2 FFA (m/z = 293.2) product of MGL enzyme assay and 17:1 FFA (m/z = 267.2) as internal standard. Signal to noise ratio was >10 for all quantitated results.

ABHD6 [2] = system: ABHD6; set-up: method as in Li et al., 2007; conditions: fibroblast cell line; ref Li et al., 2007; read-out: IC50 reported for a fibroblast cell line; cited from earlier work
FAAH [3] = molecular target: T2, FAAH (Mus musculus, UniProt O08914); assay: FAAH (FAE degradative enzyme) activity assay, UPLC-MS/MS, jejunum epithelium protein isolates; format: biochemical; conditions: jejunum epithelium protein 50 μg
T2 construct: from tissue; host or cells: mouse (C57BL/6J) lung, 21,100 x g pellet
T2 sequence (O08914 1-579): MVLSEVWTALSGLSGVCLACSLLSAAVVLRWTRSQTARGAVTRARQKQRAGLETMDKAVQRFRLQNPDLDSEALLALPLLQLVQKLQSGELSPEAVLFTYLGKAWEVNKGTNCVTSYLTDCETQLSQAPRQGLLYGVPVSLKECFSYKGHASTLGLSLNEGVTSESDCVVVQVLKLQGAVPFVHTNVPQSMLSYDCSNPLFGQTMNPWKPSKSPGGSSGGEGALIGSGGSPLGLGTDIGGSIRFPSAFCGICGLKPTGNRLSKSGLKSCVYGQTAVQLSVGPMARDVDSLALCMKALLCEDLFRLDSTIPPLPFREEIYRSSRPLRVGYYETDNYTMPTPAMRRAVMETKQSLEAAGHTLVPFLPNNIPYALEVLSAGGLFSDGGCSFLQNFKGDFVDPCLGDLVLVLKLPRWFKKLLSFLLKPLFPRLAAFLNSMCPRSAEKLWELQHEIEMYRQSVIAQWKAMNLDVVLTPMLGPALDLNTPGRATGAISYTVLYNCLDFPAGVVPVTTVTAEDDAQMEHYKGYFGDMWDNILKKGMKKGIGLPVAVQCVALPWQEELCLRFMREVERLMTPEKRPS
Description: (§2) Homogenized samples were centrifuged at 21,100 × g for 30 min at 4°C. The supernatant was discarded, and the pellets were resuspended in 750 μL of chilled 1x PBS (pH = 7.0). To ensure homogenous solution, lung samples were further homogenized using a sonic dismembranator using 8–10 root mean square (RMS) Watts of output power. Total protein was then quantified via BCA assay and normalized between all samples. Alternative protein isolation methods were required for FAAH isolation due to its subcellular localization to membranes of cytoplasmic organelles ([Gulyas et al., 2004]).
(§3) Substrate solutions were prepared by drying stock [^2H4]-PEA (5 nmol/reaction) under N2 steam and adding fatty acid free BSA (0.25%) and stock 50 mM Tris–HCl (pH = 8.0). The substrate solution was then bath sonicated for 60 min while protein samples were prepared. […] The products of the reaction were extracted via lipid extraction methods (see section “Lipid Extraction for Enzyme Assays”) and quantified via UPLC-MS/MS (see section “Quantitation of FAE Degradative Enzyme Activity”).
(§4) Lipids were extracted using liquid-liquid extraction with chloroform (2.0 mL) followed by 0.8 mL 0.2-micron ultra-purified water. […] Products were detected and quantified via UPLC-MS/MS techniques (see section “UPLC-MS/MS Detection of Analytes”).

FAAH [4] = molecular target: T2, FAAH; assay: FAAH activity assay, UPLC-MS/MS, lung protein isolates; format: biochemical; conditions: lung protein 10 μg
Description: as §2, §3, §4

FAAH [5] = system: FAAH; set-up: method as in Piomelli et al., 2006; conditions: rat brain membranes; ref Piomelli et al., 2006; read-out: IC50 reported for rat brain membranes; cited from earlier work
[6] = highest inhibitor concentration of range (1,000 nM)
[7] = lowest inhibitor concentration of range (3 nM)

For `O=C(Oc1ccc([N+](=O)[O-])cc1)N1CCC(C(O)(c2ccc3c(c2)OCO3)c2ccc3c(c2)OCO3)CC1` [JZL 184], which “MAG metabolism (normalized response)” value (MGL and ABHD6; 10 μM WWL 70 plus JZL 184, highest concentration of range (10,000 nM)) is on record?
Its value is 22.32 ± 2.73%.

And the “MAG metabolism (normalized response)” value (MGL and ABHD6; 10 μM WWL 70 plus JZL 184, lowest concentration of range (3 nM))?
The value was 94.25 ± 6.64%.

Which “MAG metabolism, product recovery (normalized response)” value (ABHD6 [1]; highest concentration of range (10,000 nM)) does the source give for `CN(Cc1cccc(-c2ccncc2)c1)C(=O)Oc1ccc(-c2ccc(C(N)=O)cc2)cc1` [WWL 70] here?
The value was 33.07 ± 1.72%.

What about the “MAG metabolism, product recovery (normalized response)” value (ABHD6 [1]; lowest concentration of range (3 nM)) of the same molecule?
Its value is 87.89 ± 13.69%.

And the pIC50 (ABHD6 [1]; mouse lung protein isolates 25 μg, WWL 70 3-10,000 nM alone, inhibition incomplete, read-out: IC50, inhibition of MAG metabolism (ABHD6 activity))?
Its pIC50 is 6.11.

What about the “blockade of MAG degradation, maximum” value (ABHD6 [1]; protein isolates from lungs of healthy male mice, concentration-dependent) of the same molecule?
The value was “up to 66%”.

Which “FAAH activity (normalized response)” value (FAAH [3]; [6]) does the source give for `NC(=O)c1cccc(-c2cccc(OC(=O)NC3CCCCC3)c2)c1` [URB597] here?
The value was 7.37 ± 0.001%.

And the “FAAH activity (normalized response)” value (FAAH [3]; [7])?
The value was 94.95 ± 7.89%.

And the “FAE metabolism (normalized response)” value (FAAH [4]; [6])?
The value was 4.15 ± 0.46%.

What about the “FAE metabolism (normalized response)” value (FAAH [4]; [7]) of the same molecule?
The value was 90.11 ± 8.58%.
